Source: patent US9908890B2, “Selective inhibitors of constitutive androstane receptor” (ST. JUDE CHILDREN'S RESEARCH HOSPITAL, priority 2014, dated 2018)

Biological target: T1, GST-hCAR-LBD (Homo sapiens, UniProt Q14994)
T1 construct: purchased Life Technologies (Carlsbad, Calif.) or Invitrogen (Carlsbad, Calif.)
T1 sequence (Q14994 109-352 limits assumed): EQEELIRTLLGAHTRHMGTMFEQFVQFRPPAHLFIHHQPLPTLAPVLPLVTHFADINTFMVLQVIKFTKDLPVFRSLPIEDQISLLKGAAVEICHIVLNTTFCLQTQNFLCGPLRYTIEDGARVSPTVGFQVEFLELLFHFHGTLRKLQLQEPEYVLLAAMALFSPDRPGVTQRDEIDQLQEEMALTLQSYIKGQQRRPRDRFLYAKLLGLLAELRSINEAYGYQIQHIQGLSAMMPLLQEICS
Test: CoAct binding inverse agonist assay (LanthaScreen TR-FRET, fluorescent PGC-1α coactivator recruitment/repression)
Assay type: biochemical

CCOC(=O)Nc1ccc2c(c1)N(C(=O)CN(CC)CC)c1ccccc1CC2 [CINPA1]
CAR-LBD interaction with PGC-1α coactivator peptide (dose response, FIG. 6A): efficiently inhibits | IC50 (read-out: IC50 (CAR inverse agonistic activity)): 690 nM
